The NIST ThermoML archive (doi:10.1016/j.jct.2015.05.006)

Tests used:
[1] = relative permittivity at various frequencies (dimensionless); details: Liquid, Frequency=1 MHz, Parallel plate capacitor
[2] = 101.33 kPa, Liquid, Vibrating tube method
[3] = xn = mol fraction of the nth substance listed; details: Liquid, Vibrating tube method, x1 = 1
[4] = relative permittivity at various frequencies (dimensionless); xn = mol fraction of the nth substance listed; details: Liquid, Frequency=1 MHz, Parallel plate capacitor, x1 = 1

COCCOC [1,2-dimethoxyethane]
[1], 96.5 kPa
Details | relative permittivity
288.15 K | 7.41
298.15 K | 7.07
308.15 K | 6.75

[2]
Details | mass density [kg/m3]
288.15 K | 872.06
298.15 K | 861.17
308.15 K | 850.13

CCCCCCCCCCCC [dodecane]
[1], 97 kPa
Details | relative permittivity
288.15 K | 2.04
298.15 K | 2.02
308.15 K | 2.01

[2]
Details | mass density [kg/m3]
288.15 K | 752.44
298.15 K | 745.29
308.15 K | 737.93

C1CCCCC1 [cyclohexane] + COCCOC
96.6 kPa
Details | mass density, 288.15 K [kg/m3] | mass density, 298.15 K [kg/m3] | mass density, 308.15 K [kg/m3] | relative permittivity, 288.15 K | relative permittivity, 298.15 K | relative permittivity, 308.15 K
[3] | 783.29 | 773.86 | 764.38 | – | – | –
[4] | – | – | – | 2.04 | 2.03 | 2.02

C1CCCCC1 [cyclohexane]
[1], 96.6 kPa
Details | relative permittivity
288.15 K | 2.04
298.15 K | 2.03
308.15 K | 2.02

[2]
Details | mass density [kg/m3]
288.15 K | 783.29
298.15 K | 773.86
308.15 K | 764.38

CCCCCCCC [octane]
[1], 97.1 kPa
Details | relative permittivity
288.15 K | 1.97
298.15 K | 1.96
308.15 K | 1.94

[2]
Details | mass density [kg/m3]
288.15 K | 706.6
298.15 K | 698.58
308.15 K | 690.48

CCCCCC [hexane] + COCCOC
95.2 kPa
Details | mass density, 288.15 K [kg/m3] | mass density, 298.15 K [kg/m3] | mass density, 308.15 K [kg/m3] | relative permittivity, 288.15 K | relative permittivity, 298.15 K | relative permittivity, 308.15 K
[3] | 664.13 | 655.14 | 646.1 | – | – | –
[4] | – | – | – | 1.91 | 1.89 | 1.88

CCCCCCCC [octane] + COCCOC
97.1 kPa
Details | mass density, 288.15 K [kg/m3] | mass density, 298.15 K [kg/m3] | mass density, 308.15 K [kg/m3] | relative permittivity, 288.15 K | relative permittivity, 298.15 K | relative permittivity, 308.15 K
[3] | 706.6 | 698.58 | 690.48 | – | – | –
[4] | – | – | – | 1.97 | 1.96 | 1.94

CCCCCC [hexane]
[1], 95.2 kPa
Details | relative permittivity
288.15 K | 1.91
298.15 K | 1.89
308.15 K | 1.88

[2]
Details | mass density [kg/m3]
288.15 K | 664.13
298.15 K | 655.14
308.15 K | 646.1

CCCCCCCCCCCC [dodecane] + COCCOC
97 kPa
Details | mass density, 288.15 K [kg/m3] | mass density, 298.15 K [kg/m3] | mass density, 308.15 K [kg/m3] | relative permittivity, 288.15 K | relative permittivity, 298.15 K | relative permittivity, 308.15 K
[3] | 752.44 | 745.29 | 737.93 | – | – | –
[4] | – | – | – | 2.04 | 2.02 | 2.01
